Reference: US6737383B1, “Herbicidal oxadiazolidines” (priority 1999, dated 2004)

Tests used:
sugar beet = test: Test B pre/postemergence sugar beet; assay type: in vivo, Beta vulgaris
Method in brief: (§1)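 Test chemicals in a non-phytotoxic solvent mixture with surfactant were sprayed preemergence onto planted seeds and postemergence onto plants 2 to 18 cm tall (1- to 4-leaf stage). After twelve to sixteen days in a greenhouse, injury was visually rated against untreated controls from 0 (no effect) to 10 (complete control).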

duck salad = test: Test B flood test duck salad; assay type: in vivo, Heteranthera limosa
Method in brief: (§2)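 Read-out is a visual response score from 0 (no effect) to 10 (complete control), assigned by comparison with untreated controls. Treatment was applied at the 2-leaf stage, and plants stayed in the greenhouse for twelve to sixteen days before scoring.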

smallflower flatsedge = test: Test B flood test smallflower flatsedge; assay type: in vivo, Cyperus difformis
Method in brief: as §2

morningglory = test: Test B pre/postemergence morningglory; assay type: in vivo, Ipomoea hederacea
Method in brief: as §1

pigweed = test: Test B pre/postemergence pigweed; assay type: in vivo, Amaranthus retroflexus
Method in brief: as §1

rice = test: Test B flood test rice; assay type: in vivo, Oryza sativa
Method in brief: as §2

cocklebur = test: Test B pre/postemergence cocklebur; assay type: in vivo, Xanthium strumarium
Method in brief: as §1

surinam grass = test: Test B pre/postemergence surinam grass; assay type: in vivo, Brachiaria decumbens
Method in brief: as §1

corn = test: Test B pre/postemergence corn; assay type: in vivo, Zea mays
Method in brief: as §1

wild oat = test: Test B pre/postemergence wild oat; assay type: in vivo, Avena fatua
Method in brief: as §1

soybean = test: Test B pre/postemergence soybean; assay type: in vivo, Glycine max
Method in brief: as §1

blackgrass = test: Test B pre/postemergence blackgrass; assay type: in vivo, Alopecurus myosuroides
Method in brief: as §1

purple nutsedge = test: Test B pre/postemergence purple nutsedge; assay type: in vivo, Cyperus rotundus
Method in brief: as §1

crabgrass = test: Test B pre/postemergence crabgrass; assay type: in vivo, Digitaria sanguinalis
Method in brief: as §1

bedstraw = test: Test B pre/postemergence bedstraw; assay type: in vivo, Galium aparine
Method in brief: as §1

giant foxtail = test: Test B pre/postemergence giant foxtail; assay type: in vivo, Setaria faberii
Method in brief: as §1

[1] = Preemergence, Rate 62 g/ha, scale of 0 to 10 where 0 is no effect and 10 is complete control
[2] = Preemergence, Rate 125 g/ha, 0 is no effect, 10 is complete control
[3] = Preemergence, Rate 250 g/ha, scale 0 to 10, 0 is no effect, 10 is complete control
[4] = Preemergence, Rate 500 g/ha, scale of 0 to 10 where 0 is no effect and 10 is complete control
[5] = Rate 62 g/ha, Postemergence, scale of 0 to 10 where 0 is no effect and 10 is complete control
[6] = Rate 125 g/ha, Postemergence, scale 0 to 10
[7] = Rate 500 g/ha, Postemergence, scale 0 to 10
[8] = Rate 62 g/ha, headed Pre-emergence (flood test species), scale 0 to 10 (0 no effect, 10 complete control)
[9] = Rate 125 g/ha, Pre-emergence, flood test species, scale 0 to 10 where 0 is no effect and 10 is complete control
[10] = Rate 250 g/ha, Pre-emergence, flood-test species, scale 0 to 10, 0 is no effect, 10 is complete control
[11] = Rate 500 g/ha, headed Pre-emergence (flood test species), scale 0 to 10 (0 no effect, 10 complete control)

CC(C)N(C(=O)n1oc(=O)n(-c2ccc(OC(F)(F)F)cc2)c1=O)c1ccc(F)cc1 [Compound 202]
Sugarbeets plant response rating (sugar beet; [1]): 0
Sugarbeets plant response rating (0 to 10 scale) (sugar beet; [2]): 0
Sugarbeets plant response rating (sugar beet; [3]): 3
Plant response rating, Sugarbeets (sugar beet; [4]): 1
Sugarbeets plant response rating (sugar beet; [5]): 0
Sugarbeets plant response rating (sugar beet; [6]): 3
Plant response rating (0 to 10; 0 is no effect, 10 is complete control), Sugarbeets (sugar beet; Rate 250 g/ha, Postemergence): 4
Sugarbeets plant response rating (sugar beet; [7]): 4
Ducksalad plant response rating (duck salad; [8]): 0
Ducksalad plant response rating (duck salad; [9]): 0
Ducksalad plant response rating (duck salad; [10]): 0
Plant response rating, Ducksalad (duck salad; [11]): 0
S. Flatsedge plant response rating (smallflower flatsedge; [8]): 0
S. Flatsedge plant response rating (smallflower flatsedge; [9]): 0
S. Flatsedge plant response rating (smallflower flatsedge; [10]): 0
S. Flatsedge plant response rating (smallflower flatsedge; Rate 500 g/ha, Pre-emergence, flood test species, scale 0 to 10 (0 no effect, 10 complete control)): 0
Morningglory plant response rating (morningglory; [1]): 0
Morningglory plant response rating (0 to 10 scale) (morningglory; [2]): 0
Morningglory plant response rating (morningglory; [3]): 0
Plant response rating, Morningglory (morningglory; [4]): 1
Morningglory plant response rating (morningglory; [5]): 2
Morningglory plant response rating (morningglory; [6]): 5
Plant response rating (0 to 10; 0 is no effect, 10 is complete control), Morningglory (morningglory; Rate 250 g/ha, Postemergence): 8
Morningglory plant response rating (morningglory; [7]): 9
Redroot pigweed plant response rating (pigweed; [1]): 0
Redroot pigweed plant response rating (0 to 10 scale) (pigweed; [2]): 0
Redroot pigweed plant response rating (pigweed; [3]): 8
Plant response rating, Redroot pigweed (pigweed; [4]): 3
Redroot pigweed plant response rating (pigweed; [5]): 3
Redroot pigweed plant response rating (pigweed; [6]): 4
Plant response rating (0 to 10; 0 is no effect, 10 is complete control), Redroot pigweed (pigweed; Rate 250 g/ha, Postemergence): 6
Redroot pigweed plant response rating (pigweed; [7]): 7
Rice plant response rating (rice; [8]): 0
Rice plant response rating (rice; [9]): 0
Rice plant response rating (rice; [10]): 0
Plant response rating, Rice (rice; [11]): 0
Cocklebur plant response rating (cocklebur; [1]): 0
Cocklebur plant response rating (0 to 10 scale) (cocklebur; [2]): 0
Cocklebur plant response rating (cocklebur; [3]): 0
Plant response rating, Cocklebur (cocklebur; [4]): 0
Cocklebur plant response rating (cocklebur; [5]): 0
Cocklebur plant response rating (cocklebur; [6]): 0
Plant response rating (0 to 10; 0 is no effect, 10 is complete control), Cocklebur (cocklebur; Rate 250 g/ha, Postemergence): 2
Cocklebur plant response rating (cocklebur; [7]): 2
B. signalgrass plant response rating (surinam grass; [1]): 0
B. signalgrass plant response rating (0 to 10 scale) (surinam grass; [2]): 0
B. signalgrass plant response rating (surinam grass; [3]): 0
Plant response rating, B. signalgrass (surinam grass; [4]): 0
B. signalgrass plant response rating (surinam grass; [5]): 0
B. signalgrass plant response rating (surinam grass; Rate 125 g/ha, Postemergence, scale 0 (no effect) to 10 (complete control)): 0
Plant response rating, B. signalgrass (surinam grass; Rate 250 g/ha, Postemergence, scale 0 to 10, 0 is no effect, 10 is complete control): 0
B. signalgrass plant response rating (surinam grass; Rate 500 g/ha, Postemergence, scale 0 to 10, 0 no effect, 10 complete control): 0
Corn plant response rating (corn; [1]): 0
Corn plant response rating (0 to 10 scale) (corn; [2]): 0
Corn plant response rating (corn; [3]): 0
Plant response rating, Corn (corn; [4]): 0
Corn plant response rating (corn; [5]): 0
Corn plant response rating (corn; [6]): 0
Plant response rating (0 to 10; 0 is no effect, 10 is complete control), Corn (corn; Rate 250 g/ha, Postemergence): 0
Corn plant response rating (corn; [7]): 0
Wild oats plant response rating (wild oat; [1]): 0
Wild oats plant response rating (wild oat; [3]): 0
Plant response rating, Wild oats (wild oat; [4]): 5
Wild oats plant response rating (wild oat; [5]): 0
Wild oats plant response rating (wild oat; [6]): 0
Plant response rating (0 to 10; 0 is no effect, 10 is complete control), Wild oats (wild oat; Rate 250 g/ha, Postemergence): 0
Soybean plant response rating (soybean; [1]): 0
Soybean plant response rating (0 to 10 scale) (soybean; [2]): 0
Soybean plant response rating (soybean; [3]): 0
Plant response rating, Soybean (soybean; [4]): 0
Soybean plant response rating (soybean; [5]): 2
Soybean plant response rating (soybean; [6]): 2
Plant response rating (0 to 10; 0 is no effect, 10 is complete control), Soybean (soybean; Rate 250 g/ha, Postemergence): 3
Soybean plant response rating (soybean; [7]): 3
Blackgrass plant response rating (blackgrass; [1]): 0
Blackgrass plant response rating (0 to 10 scale) (blackgrass; [2]): 0
Blackgrass plant response rating (blackgrass; [3]): 5
Plant response rating, Blackgrass (blackgrass; [4]): 2
Blackgrass plant response rating (blackgrass; [5]): 0
Blackgrass plant response rating (blackgrass; [6]): 3
Plant response rating (0 to 10; 0 is no effect, 10 is complete control), Blackgrass (blackgrass; Rate 250 g/ha, Postemergence): 5
Blackgrass plant response rating (blackgrass; [7]): 6
Nutsedge plant response rating (purple nutsedge; [1]): 0
Nutsedge plant response rating (purple nutsedge; [5]): 0
Nutsedge plant response rating (purple nutsedge; [6]): 0
Plant response rating (0 to 10; 0 is no effect, 10 is complete control), Nutsedge (purple nutsedge; Rate 250 g/ha, Postemergence): 0
Nutsedge plant response rating (purple nutsedge; [7]): 0
Crabgrass plant response rating (crabgrass; [1]): 3
Crabgrass plant response rating (0 to 10 scale) (crabgrass; [2]): 4
Crabgrass plant response rating (crabgrass; [3]): 6
Plant response rating, Crabgrass (crabgrass; [4]): 9
Crabgrass plant response rating (crabgrass; [5]): 0
Crabgrass plant response rating (crabgrass; [6]): 0
Plant response rating (0 to 10; 0 is no effect, 10 is complete control), Crabgrass (crabgrass; Rate 250 g/ha, Postemergence): 1
Crabgrass plant response rating (crabgrass; [7]): 4
Bedstraw plant response rating (bedstraw; [1]): 0
Bedstraw plant response rating (0 to 10 scale) (bedstraw; [2]): 0
Bedstraw plant response rating (bedstraw; [3]): 6
Plant response rating, Bedstraw (bedstraw; [4]): 2
Bedstraw plant response rating (bedstraw; [5]): 1
Bedstraw plant response rating (bedstraw; [6]): 2
Plant response rating (0 to 10; 0 is no effect, 10 is complete control), Bedstraw (bedstraw; Rate 250 g/ha, Postemergence): 4
Bedstraw plant response rating (bedstraw; [7]): 4
Giant foxtail plant response rating (giant foxtail; [1]): 2
Giant foxtail plant response rating (0 to 10 scale) (giant foxtail; [2]): 6
Giant foxtail plant response rating (giant foxtail; [3]): 7
Plant response rating, Giant foxtail (giant foxtail; [4]): 10
Giant foxtail plant response rating (giant foxtail; [5]): 0
Giant foxtail plant response rating (giant foxtail; [6]): 0
Plant response rating (0 to 10; 0 is no effect, 10 is complete control), Giant foxtail (giant foxtail; Rate 250 g/ha, Postemergence): 0
Giant foxtail plant response rating (giant foxtail; [7]): 2
